Key:
[1] = tested on: HER2YF/HER3E928G (2YF/3EG) Ba/F3 cells; experiment: Ba/F3 proliferation assay, 2YF/3EG +/- NRG; type: cell-based; conditions: + NRG vs no NRG
Description: Consistent with the results in the HER2 overexpressing cell lines, CW-2 cells that harbor a HER3-activating mutation were equally sensitive to compound 3+/−NRG in both proliferation and signaling assays (FIGS. 6A-6B). […] To further evaluate the potential of compound 3 against HER2 mutants within a HER2/HER3 heterodimer we transduced wt HER3 containing Ba/F3 cells with reported HER2 oncogenic mutants in the HER2YF construct.
For HER2YF/3EG Ba/F3 cells were selected according to the protocol for the HER2YF/3TM Ba/F3's with the exception that no NRG was supplemented in the media during IL-3 independent selection.
Proliferation Assays. For adherent cell lines, cells were plated onto opaque white 96 well plates (Greiner cat #655083) and allowed to adhere overnight. The following day media was changed to fresh media that contained either DMSO or the indicated concentration of drug plus NRG (50 ng/mL final concentration) as indicated. Plates were incubated at 37° C. for 72 h and proliferation was read out using Cell Titer Glo (Promega) according to the manufacturer's protocol. For Ba/F3 cell proliferation, cells, drug dilution, and any necessary growth factors (10 ng/mL IL-3 or 6.25 ng/mL NRG) were combined in a well of a 96 well plate. Plates were incubated at 37° C. for 48 h and proliferation was read out using Cell Titer Glo according to the manufacturer's protocol. For all normalized assays, proliferation was normalized to the DMSO control condition. All graphs were plotted in GraphPad Prism 6 and fit with a non-linear regression of the log(inhibitor) vs response with a variable slope where shown. All graphs are averages (+/−standard deviation) of biological triplicates each performed in technical triplicate unless otherwise noted. If only one biological replicate was performed standard deviations were derived from the technical replicates.

[2] = tested on: HER2 and HER3 signaling in NCI-H1781 cells; experiment: HER2 and HER3 signaling in NCI-H1781 cells (immunoblot); type: cell-based; conditions: NCI-H1781 cells (HER2 kinase domain insertion); 15 min after drug
Protocol: Immunoblotting. Cells were grown in 6 well plates and treated according to the indicated conditions at which point the media was aspirated, cells were washed with 1 mL of cold PBS, which was then aspirated and the plates were frozen at −80° C. The frozen cells were thawed on the plates in a buffer containing 50 mM Tris pH 7.5, 150 mM NaCl, 1 mM EDTA, and 1% Triton X-100 supplemented with 1× phosphatase (PhoSTOP, Roche) and 1× protease (complete-mini tablets, Roche) inhibitors. Lysates were scraped, transferred to Eppendorf tubes, and cleared by centrifugation at 20,000×g for 20 min at 4° C. The clarified lysates were transferred to chilled, clean tubes, and normalized for protein concentration by Bradford (Bio-Rad). The normalized lysates were diluted with Laemmli loading buffer, and 10 μg of total protein was run on a 4-12% gradient gel (Invitrogen), which was then transferred to […] nitrocellulose (Bio-Rad) and analyzed using the indicated primary antibodies according to the manufacturer's recommendations. Primary antibodies were detected using IRDye secondary antibodies (Li-Cor) according to the manufacturer's recommendations and scanned on an Odyssey imager (Li-Cor). Scanned images were cropped and assembled in Adobe Illustrator 6.

ITK = molecular target: T1, ITK (Homo sapiens, UniProt Q08881); experiment: Nanosyn in vitro kinase profiling: ITK; type: biochemical; conditions: for inhibition at 1 µM: compound at 1 μM
T1 sequence (Q08881 1-620): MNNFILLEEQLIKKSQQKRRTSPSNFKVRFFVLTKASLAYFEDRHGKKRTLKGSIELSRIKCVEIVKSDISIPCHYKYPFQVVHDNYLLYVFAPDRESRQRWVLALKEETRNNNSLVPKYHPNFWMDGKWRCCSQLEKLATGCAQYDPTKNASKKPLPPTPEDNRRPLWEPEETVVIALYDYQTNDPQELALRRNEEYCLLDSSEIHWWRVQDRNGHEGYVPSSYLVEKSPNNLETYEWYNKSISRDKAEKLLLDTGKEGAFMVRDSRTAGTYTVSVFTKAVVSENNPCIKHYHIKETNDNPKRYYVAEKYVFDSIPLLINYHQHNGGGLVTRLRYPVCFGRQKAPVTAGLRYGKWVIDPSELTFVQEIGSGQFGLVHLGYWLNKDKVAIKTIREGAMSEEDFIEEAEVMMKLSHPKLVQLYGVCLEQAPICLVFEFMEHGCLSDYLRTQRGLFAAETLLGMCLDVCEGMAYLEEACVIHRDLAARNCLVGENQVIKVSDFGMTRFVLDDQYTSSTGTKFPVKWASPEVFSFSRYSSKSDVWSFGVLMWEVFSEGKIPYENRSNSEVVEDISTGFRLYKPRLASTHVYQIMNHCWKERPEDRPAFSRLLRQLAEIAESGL
Protocol: (§1) This was confirmed by in vitro profiling against a panel of kinases, with compound 2 only showing potent inhibition of EGFR and Ab1 (Table 2).
(§2) In vitro Kinome Screen. In vitro profiling of compound 2 at 100 nM was conducted by Nanosyn.

PKC-ALPHA = PKC-ALPHA (Homo sapiens, UniProt P17252); experiment: Nanosyn in vitro kinase profiling: PKC-ALPHA; type: biochemical; conditions: for inhibition at 1 µM: compound at 1 μM
Protocol: as §1, §2

PDK1 = molecular target: T2, PDK1 (Homo sapiens, UniProt O15530); experiment: Nanosyn in vitro kinase profiling: PDK1; type: biochemical; conditions: for inhibition at 1 µM: compound at 1 μM
T2 sequence (O15530 1-556): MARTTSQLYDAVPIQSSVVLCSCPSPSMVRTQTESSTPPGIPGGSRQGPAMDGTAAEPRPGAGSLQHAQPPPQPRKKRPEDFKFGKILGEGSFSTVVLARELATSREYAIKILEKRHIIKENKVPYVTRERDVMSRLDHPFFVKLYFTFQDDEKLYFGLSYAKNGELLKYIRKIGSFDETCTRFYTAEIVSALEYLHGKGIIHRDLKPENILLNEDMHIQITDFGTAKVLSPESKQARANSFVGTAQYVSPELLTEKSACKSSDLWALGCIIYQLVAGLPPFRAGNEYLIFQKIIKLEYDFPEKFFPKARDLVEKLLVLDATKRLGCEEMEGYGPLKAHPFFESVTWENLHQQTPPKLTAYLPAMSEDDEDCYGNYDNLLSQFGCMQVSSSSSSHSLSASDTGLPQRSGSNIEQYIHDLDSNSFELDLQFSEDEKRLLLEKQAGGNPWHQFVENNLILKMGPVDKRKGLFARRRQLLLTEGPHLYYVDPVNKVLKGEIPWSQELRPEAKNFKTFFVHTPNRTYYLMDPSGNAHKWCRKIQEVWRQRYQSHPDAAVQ
Protocol: as §1, §2

EGFR = EGFR (Homo sapiens, UniProt P00533); experiment: Nanosyn in vitro kinase profiling: EGFR; type: biochemical; conditions: for inhibition at 1 µM: compound at 1 μM
EGFR, sequence (P00533 25-1210): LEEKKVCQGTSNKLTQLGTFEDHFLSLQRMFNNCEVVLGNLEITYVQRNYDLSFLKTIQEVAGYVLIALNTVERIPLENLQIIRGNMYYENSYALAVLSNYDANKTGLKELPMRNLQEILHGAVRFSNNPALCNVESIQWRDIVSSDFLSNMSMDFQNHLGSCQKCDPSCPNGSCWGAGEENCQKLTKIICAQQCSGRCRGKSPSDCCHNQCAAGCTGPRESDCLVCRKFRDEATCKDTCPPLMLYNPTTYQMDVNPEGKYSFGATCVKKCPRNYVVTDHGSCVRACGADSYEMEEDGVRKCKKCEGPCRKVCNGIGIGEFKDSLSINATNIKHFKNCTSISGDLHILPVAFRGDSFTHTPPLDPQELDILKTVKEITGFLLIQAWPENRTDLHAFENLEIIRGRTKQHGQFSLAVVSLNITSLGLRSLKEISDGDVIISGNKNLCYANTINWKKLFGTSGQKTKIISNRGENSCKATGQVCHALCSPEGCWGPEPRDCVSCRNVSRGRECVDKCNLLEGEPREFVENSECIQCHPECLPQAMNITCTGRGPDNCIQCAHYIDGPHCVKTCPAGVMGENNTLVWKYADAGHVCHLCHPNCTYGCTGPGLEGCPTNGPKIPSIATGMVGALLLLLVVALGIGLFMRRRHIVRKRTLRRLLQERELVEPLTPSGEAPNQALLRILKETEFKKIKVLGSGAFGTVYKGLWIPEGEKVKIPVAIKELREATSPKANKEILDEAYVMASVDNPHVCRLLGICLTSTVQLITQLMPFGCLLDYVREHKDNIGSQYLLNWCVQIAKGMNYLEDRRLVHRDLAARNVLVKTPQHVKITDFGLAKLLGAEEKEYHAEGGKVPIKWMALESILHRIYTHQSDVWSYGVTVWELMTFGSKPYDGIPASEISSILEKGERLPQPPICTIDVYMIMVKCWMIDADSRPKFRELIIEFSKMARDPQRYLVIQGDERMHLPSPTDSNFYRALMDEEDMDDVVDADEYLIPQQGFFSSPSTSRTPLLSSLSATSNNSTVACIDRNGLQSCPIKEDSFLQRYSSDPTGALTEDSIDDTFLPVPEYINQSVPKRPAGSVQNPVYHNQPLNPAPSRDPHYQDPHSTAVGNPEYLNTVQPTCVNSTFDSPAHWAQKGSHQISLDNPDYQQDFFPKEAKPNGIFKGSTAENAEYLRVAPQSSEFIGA
Protocol: as §1, §2

SMILES | reduction of sensitivity on addition of NRG [1] | inhibition of HER2/HER3 signaling [2] | inhibition at 1 µM (ITK) | inhibition at 1 µM (PKC-ALPHA) | inhibition at 1 µM (PDK1) | inhibition at 1 µM (EGFR) | inhibition at 0.1 µM (ITK; compound at 100 nM) | inhibition at 0.1 µM (PKC-ALPHA; compound at 100 nM) | inhibition at 0.1 µM (PDK1; compound at 100 nM) | inhibition at 0.1 µM (EGFR; compound at 100 nM)
CS(=O)(=O)CCNCc1ccc(-c2ccc3ncnc(Nc4ccc(OCc5cccc(F)c5)c(Cl)c4)c3c2)o1 [lapatinib] | 55 fold | unable to fully inhibit signaling | – | – | – | – | – | – | – | –
COc1ccc(-c2ccoc2)cc1Nc1ncnc2[nH]cc(-c3cc[nH]n3)c12 [compound 3, N-(5-(furan-3-yl)-2-methoxyphenyl)-5-(1H-pyrazol-3-yl)-7H-pyrrolo[2,3-d]pyrimidin-4-amine] | less than 5 fold | rapidly and fully inhibited | 24% | 30% | 5% | 99% | – | – | – | –
COc1ccc(-c2ccco2)cc1Nc1ncnc2[nH]nc(-c3ccco3)c12 [compound 2, 3-(furan-2-yl)-N-(5-(furan-2-yl)-2-methoxyphenyl)-1H-pyrazolo[3,4-d]pyrimidin-4-amine] | – | – | 13.9% | 5.57% | 18.3% | 96.9% | 1.24% | 1.24% | 4.58% | 95.6%

From US20190119284A1, “ErbB Inhibitors and Uses Thereof” (The Regents of the University of California, priority 2016, published 2019)
